System: German cockroaches
Assay: Knockdown test on German cockroaches by spraying an oil solution
Type: in vivo, German cockroach (Blattella germanica)
Details: 0.00156% (w/v) oil solution, 1.5 ml sprayed from 60 cm height, ten German cockroaches (5 male, 5 female), repeated twice
Procedure: Each of the present invention compounds (1) and (2) (0.00156 parts) produced in the aforementioned Production Examples was dissolved in 10 parts of dichloromethane and the resulting solution was mixed with 89.99844 parts of deodorized kerosine to prepare a 0.00156% (w/v) oil solution.
Ten German cockroaches (5 of each male and female) were released in a test container (measuring 8.75 cm in diameter and 7.5 cm in height, bottom area covered with a 16 mesh wire netting) coated with butter at an inner wall, and the container was disposed on the bottom of a test chamber (bottom surface measuring 46 cm and 46 cm, 70 cm in height).
From 60 cm in height above the container, 1.5 ml of the oil solution of each of the present invention compounds (1) and (2) was sprayed using a spray gun (spray pressure: 0.4 kg/cm^2). Thirty seconds after spraying, the container was removed from the test chamber. After a given time, the number of knockdowned cockroaches was counted and a knockdown rate was determined (repeated twice). The knockdown rate was calculated by the following equation. Knockdown rate (%)=(number of knockdowned cockroaches/number of test cockroaches)×100
For comparison, a test was carried out in the same manner as described above, except that 2,5-dioxo-3-(2-propynyl)imidazolidinylmethyl=(1R)-trans-3-(2-methyl-1-propenyl)-2,2-dimethylcyclopropane carboxylate (compound described in “Pestiside Science”, 1979, 10, p. 291, hereinafter referred to as the comparative compound (1)) represented by the following formula: […]

Compound	Knockdown rate (%) after 2 minutes [%]
C#CCN1CC(=O)N(COC(=O)[C@@H]2[C@@H](/C=C(\C#N)C=C)C2(C)C)C1=O [Present invention compound (1), 2,5-dioxo-3-(2-propynyl)imidazolidinylmethyl=(1R)-trans-3-[(1Z)-2-cyano-1,3-butadienyl]-2,2-dimethylcyclopropane carboxylate]	95
C#CCN1CC(=O)N(COC(=O)[C@@H]2[C@@H](/C=C(\C)C=C)C2(C)C)C1=O [comparative compound (2), 2,5-dioxo-3-(2-propynyl)imidazolidinylmethyl=(1R)-trans-3-[(1E)-2-methyl-1-butadienyl)-2,2-dimethylcyclopropane carboxylate]	10
C#CCN1CC(=O)N(COC(=O)[C@@H]2[C@@H](C=C(C)C)C2(C)C)C1=O [Comparative compound (1), 2,5-dioxo-3-(2-propynyl)imidazolidinylmethyl=(1R)-trans-3-(2-methyl-1-propenyl)-2,2-dimethylcyclopropane carboxylate]	45
C#CCN1CC(=O)N(COC(=O)[C@@H]2[C@@H](/C=C(C#N)/C=C/C)C2(C)C)C1=O [Present invention compound (2), 2,5-dioxo-3-(2-propynyl)imidazolidinylmethyl=(1R)-trans-3-[(1Z,3E)-2-cyano-1,3-pentadienyl]-2,2-dimethylcyclopropane carboxylate]	100

— patent US8487115B2, “Hydantoin derivatives of cyano-substituted chrysanthemic acid esters and their use in pest control” (Sumitomo Chemical Company, Limited, priority 2010, dated 2013)
